Assay results taken from ChEMBL document CHEMBL1201862, “PubChem BioAssay data set” (2004).
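Protocol summary: plate cells (96-well), add compound at 5 concentrations, incubate 48 h, interpolate endpoints linearly. GI50 marks 50% less growth.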 Calls of active or inactive are those of the source. No stated cut-off is given here; in the data, active = GI50 up to about 1.1 µM and inactive = higher.

Tests used:
Assay in all cases: DTP human tumour cell line panel, 48 h
HOP-62 = test system: HOP-62
M14 = test system: M14
Malme-3M = test system: Malme-3M
NCI-H23 = test system: NCI-H23
NCI-H522 = test system: NCI-H522
OVCAR-5 = test system: OVCAR-5
PC-3 = test system: PC-3
SF-539 = test system: SF-539
SK-MEL-5 = test system: SK-MEL-5
SK-OV-3 = test system: SK-OV-3
T47D = test system: T47D
UACC-257 = test system: UACC-257
UACC-62 = test system: UACC-62
UO-31 = test system: UO-31
ACHN = test system: ACHN
HOP-92 = test system: HOP-92
HT-29 = test system: HT-29
OVCAR-8 = test system: OVCAR-8
SF-268 = test system: SF-268
SK-MEL-28 = test system: SK-MEL-28

Measured: GI50

COc1c(-c2cccs2)oc2c(CC(=O)O)cccc2c1=O
inactive: HOP-62 1.2 µM | M14 > 100 µM | Malme-3M > 100 µM | NCI-H23 53.3 µM | NCI-H522 > 100 µM | OVCAR-5 > 100 µM | PC-3 > 100 µM | SF-539 > 100 µM | SK-MEL-5 > 100 µM | SK-OV-3 > 100 µM | T47D > 100 µM | UACC-257 > 100 µM | UACC-62 > 100 µM | UO-31 10.3 µM

CCN(CC)c1ccc2cc(C(N)=O)c(=N)oc2c1
inactive: ACHN 32.7 µM | HOP-62 38.6 µM | HOP-92 24 µM | HT-29 51.5 µM | M14 34.4 µM | NCI-H23 42.8 µM | OVCAR-5 51.5 µM | OVCAR-8 50 µM | PC-3 26.3 µM | SF-268 42.3 µM | SF-539 4.15 µM | SK-MEL-28 31.3 µM | SK-MEL-5 32.5 µM | SK-OV-3 36.6 µM | T47D 23.7 µM | UACC-257 > 100 µM | UACC-62 30.8 µM

O=C1CC2(CCN(Cc3ccccc3)CC2)C(=O)N1N1CCCCC1
inactive: ACHN > 100 µM | HOP-62 > 100 µM | HT-29 > 100 µM | M14 > 100 µM | Malme-3M > 100 µM | NCI-H23 > 100 µM | NCI-H522 > 100 µM | OVCAR-5 > 100 µM | OVCAR-8 > 100 µM | PC-3 > 100 µM | SF-268 > 100 µM | SF-539 > 100 µM | SK-MEL-28 > 100 µM | SK-MEL-5 > 100 µM | SK-OV-3 > 100 µM | T47D > 100 µM | UACC-257 > 100 µM | UACC-62 > 100 µM | UO-31 > 100 µM

COc1ccc2cc1Oc1ccc(cc1)C(Sc1ccccc1)CCOC(=O)CC2 (centres undefined)
inactive: ACHN > 100 µM | HOP-62 > 100 µM | HT-29 > 100 µM | M14 > 100 µM | Malme-3M > 100 µM | NCI-H23 > 100 µM | NCI-H522 > 100 µM | OVCAR-5 > 100 µM | OVCAR-8 > 100 µM | PC-3 > 100 µM | SF-268 > 100 µM | SF-539 > 100 µM | SK-MEL-28 > 100 µM | SK-MEL-5 63.1 µM | SK-OV-3 > 100 µM | T47D 11.5 µM | UACC-257 > 100 µM | UACC-62 > 100 µM | UO-31 > 100 µM

Cc1c(/C=N/NC(=S)Nc2cccc(Cl)c2)c(=O)n(-c2ccccc2)n1C
inactive: ACHN 14.7 µM | HOP-62 13.9 µM | HOP-92 13.3 µM | HT-29 27.9 µM | M14 16.6 µM | NCI-H23 28.7 µM | OVCAR-8 14.1 µM | PC-3 34.6 µM | SF-268 16.4 µM | SF-539 17.1 µM | SK-MEL-28 > 100 µM | SK-MEL-5 36.1 µM | SK-OV-3 18.2 µM | T47D 30.4 µM | UACC-257 32.4 µM | UACC-62 30.7 µM | UO-31 15.3 µM

COc1ccc(C(=O)Cn2c(C(=O)/C=C/c3ccco3)nc3ccccc32)cc1
inactive: ACHN 42.8 µM | HOP-62 46 µM | HOP-92 51.4 µM | HT-29 36.6 µM | M14 36.6 µM | Malme-3M 35.2 µM | NCI-H23 42.4 µM | OVCAR-5 > 100 µM | PC-3 36.3 µM | SF-268 24.5 µM | SF-539 34 µM | SK-MEL-28 42.2 µM | SK-MEL-5 26.7 µM | SK-OV-3 37.3 µM | T47D 66.7 µM | UACC-257 27.4 µM | UACC-62 27.4 µM | UO-31 31.6 µM

COC(=O)/N=[N+](\[O-])C(c1ccccc1)c1ccccc1
inactive: HT-29 > 100 µM | M14 31.8 µM | Malme-3M 27.1 µM | NCI-H23 29.1 µM | NCI-H522 > 100 µM | OVCAR-5 > 100 µM | OVCAR-8 > 100 µM | PC-3 60.4 µM | SF-268 > 100 µM | SF-539 > 100 µM | SK-MEL-28 > 100 µM | SK-MEL-5 41.9 µM | SK-OV-3 > 100 µM | T47D 40.2 µM | UACC-257 28.4 µM | UACC-62 51.6 µM | UO-31 13.4 µM

CCOC(=O)C1C=C1C(C)(C)O (centres undefined)
inactive: ACHN > 10 µM | HOP-62 > 10 µM | HOP-92 > 10 µM | HT-29 > 10 µM | M14 > 10 µM | Malme-3M > 10 µM | NCI-H23 > 10 µM | OVCAR-5 > 10 µM | OVCAR-8 > 10 µM | PC-3 > 10 µM | SF-268 > 10 µM | SF-539 > 10 µM | SK-MEL-28 > 10 µM | SK-MEL-5 > 10 µM | SK-OV-3 > 10 µM | T47D 7.24 µM | UACC-257 > 10 µM | UO-31 > 10 µM
